Laboratory results published in EPA's ToxValDB 9.5 (doi:10.2903/j.efsa.2013.3240).
In brackets after ≈: the same amount, converted by molar mass.

Tests used:
Oncorhynchus mykiss = details: acute; duration: 96 hours; mortality
Colinus virginianus = details: for NOEL: reproduction developmental, reproduction
Apis mellifera = details: acute; duration: 48 hours; oral; unspecified; mortality
Bibionidae = details: chronic/long-term; duration: 28 days; other
Typhlodromus pyri = assay: LR50; higher = less toxic; details: acute; duration: 7 days; mortality
Aphidius rhopalosiphi = assay: LR50; higher = less toxic; details: acute; duration: 48 hours; mortality

SMILES: FC(F)(F)c1ccc(OCCCOc2c(Cl)cc(OCC=C(Cl)Cl)cc2Cl)nc1 [Pyridalyl]
- LC50 (Oncorhynchus mykiss): 0.5 µg/mL (≈ 1.02 µM)
- LD50 (Rattus norvegicus; acute, oral, mortality): > 5000 mg/kg-day
- NOAEL (Rattus norvegicus; chronic, duration: 2 years, body weight): 3.4 mg/kg-day
- NOAEL (Rattus norvegicus; reproduction developmental, body weight): 2.8 mg/kg-day
- NOAEL (Rattus norvegicus; subchronic, duration: 13 weeks, oral, hematological): 5.6 mg/kg-day
- LC50 (Tagia sp.; acute, duration: 14 days, mortality): > 1000 mg/kg
- NOEC (Tagia sp.; chronic/long-term, duration: 56 days, reproduction): 63 mg/kg
- LC50 (Colinus virginianus; acute, oral, diet, mortality): 334 mg/kg-day
- LD50 (Colinus virginianus; acute, oral, mortality): > 2250 mg/kg-day
- NOEL (Colinus virginianus; F): 11.9 mg/kg-day
- NOEL (Colinus virginianus): 12.6 mg/kg-day
- LD50 (Apis mellifera): > 100 µg/piece
- LC50 (Neomysis kadiakensis; acute, duration: 96 hours, mortality): 0.001 µg/mL (≈ 0.00204 µM)
- NOEC (Neomysis kadiakensis; chronic/long-term, duration: 28 days, reproduction): 0.45 µg/L
- NOEC (Bibionidae): 12 µg/L
- LR50 (Typhlodromus pyri): > 600 g/ha
- LR50 (Aphidius rhopalosiphi): 458 g/ha
